Our source for the EC50 values is patent publication US10058550B2, “Methods of treating heart failure” (priority 2015, dated 2018).

Structures are written as SMILES. pEC50: −log10 of the molar value.

Sequence of human APJ receptor (P35414 whole entry): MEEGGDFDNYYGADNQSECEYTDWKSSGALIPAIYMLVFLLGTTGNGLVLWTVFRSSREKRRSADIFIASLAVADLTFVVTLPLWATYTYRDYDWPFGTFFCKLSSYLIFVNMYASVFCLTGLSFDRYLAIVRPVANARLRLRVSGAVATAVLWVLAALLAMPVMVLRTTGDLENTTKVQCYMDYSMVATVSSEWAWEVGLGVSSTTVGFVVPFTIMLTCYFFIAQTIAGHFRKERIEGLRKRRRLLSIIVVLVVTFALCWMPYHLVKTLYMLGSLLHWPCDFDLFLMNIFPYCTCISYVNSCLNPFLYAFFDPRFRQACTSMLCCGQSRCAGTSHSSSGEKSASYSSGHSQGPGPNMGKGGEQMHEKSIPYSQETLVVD

The test deals with human APJ receptor (Homo sapiens (Human), UniProt P35414). Description: biochemical. The settings on record: read-out: Activity hAPJ SPA EC50 IP. The format is biochemical. How it is done:
The human APJ receptor was cloned by polymerase chain reaction and the gene encoding the receptor was subcloned in pFLAG-CMV™-3 expression vector (Sigma, Saint Louis, Mo. USA) in-house at Amgen. A GTPγS binding assay was performed on membranes prepared from CHO cells stably expressing human APJ receptor. The optimum experimental conditions for the concentrations of GDP, MgCl2, and NaCl in the assay buffer were initially determined. The assay was performed in assay buffer [20 mM HEPES, pH 7.5, 5 mM MgCl2, and 0.1% (w/v) BSA with 200 mM NaCl, 3 μM GDP] and membranes expressing human APJ receptor/well along with WGA PS beads. The reaction was initiated by addition of 0.2 nM [^35S]GTPγS (Perkin Elmer Life and Analytical Sciences, Waltham USA) in the absence or presence of various ligands and incubated at RT for 90 min. […] All the results presented are means of several independent experiments and analyzed by non-linear regression methods using commercially available program Prism (GraphPad, San Diego, Calif.) to obtain EC50 detailed in Table 58.
For the compound `COc1cccc(-c2nnc(NS(=O)(=O)[C@@H](C)[C@H](OC)c3ncc(C)cn3)n2-c2ccccc2C(F)(F)F)n1` (atropisomer, axis not shown; (P)) [Example 74.0, (1R,2S,P)-1-methoxy-N-(5-(6-methoxy-2-pyridinyl)-4-(2-(trifluoromethyl)phenyl)-4H-1,2,4-triazol-3-yl)-1-(5-methyl-2-pyrimidinyl)-2-propanesulfonamide and (1R,2S,M)-1-methoxy-N-(5-(6-methoxy-2-pyridinyl)-4-(2-(trifluoromethyl)phenyl)-4H-1,2,4-triazol-3-yl)-1-(5-methyl-2-pyrimidinyl)-2-propanesulfonamide], the pEC50 was 8.60. Turning to `COc1cccc(-c2nnc(NS(=O)(=O)[C@@H](C)[C@H](OC)c3ncc(C)cn3)n2-c2ccccc2F)n1` (atropisomer, axis not shown; (P)) [Example 76.0, (1R,2S,P)-N-(4-(2-fluorophenyl)-5-(6-methoxy-2-pyridinyl)-4H-1,2,4-triazol-3-yl)-1-methoxy-1-(5-methyl-2-pyrimidinyl)-2-propanesulfonamide and (1R,2S,M)-N-(4-(2-fluorophenyl)-5-(6-methoxy-2-pyridinyl)-4H-1,2,4-triazol-3-yl)-1-methoxy-1-(5-methyl-2-pyrimidinyl)-2-propanesulfonamide], the pEC50 was 8.52. Turning to `COc1cccc(-c2nnc(NS(=O)(=O)[C@H](C)Cc3ncc(F)cn3)n2-c2ccccc2OC)n1` (mixture of isomers) [Example 31.0, (2R)-1-(5-fluoropyrimidin-2-yl)-N-(4-(2-methoxyphenyl)-5-(6-methoxypyridin-2-yl)-4H-1,2,4-triazol-3-yl)propane-2-sulfonamide and (2S)-1-(5-fluoropyrimidin-2-yl)-N-(4-(2-methoxyphenyl)-5-(6-methoxypyridin-2-yl)-4H-1,2,4-triazol-3-yl)propane-2-sulfonamide], the pEC50 is 8.62. On to `COc1cccc(-c2nnc(NS(=O)(=O)[C@H](C)Cc3ncc(F)cn3)n2-c2c(C)noc2C)n1` (mixture of isomers) [Example 32.0, (2R)-N-(4-(3,5-dimethylisoxazol-4-yl)-5-(6-methoxypyridin-2-yl)-4H-1,2,4-triazol-3-yl)-1-(5-fluoropyrimidin-2-yl)propane-2-sulfonamide and (2S)-N-(4-(3,5-dimethylisoxazol-4-yl)-5-(6-methoxypyridin-2-yl)-4H-1,2,4-triazol-3-yl)-1-(5-fluoropyrimidin-2-yl)propane-2-sulfonamide], for which the pEC50 is 6.85. Turning to `COc1cccc(-c2nnc(NS(=O)(=O)[C@H](C)C(=O)N3CCCC3)n2-c2c(OC)cccc2OC)n1` (mixture of isomers) [Example 83.0, (2R)-N-(4-(2,6-dimethoxyphenyl)-5-(6-methoxy-2-pyridinyl)-4H-1,2,4-triazol-3-yl)-1-oxo-1-(1-pyrrolidinyl)-2-propanesulfonamide and (2S)-N-(4-(2,6-dimethoxyphenyl)-5-(6-methoxy-2-pyridinyl)-4H-1,2,4-triazol-3-yl)-1-oxo-1-(1-pyrrolidinyl)-2-propanesulfonamide], the pEC50 was 7.32. The same measure for `COc1cccc(OC)c1-n1c(NS(=O)(=O)[C@@H](C)[C@H](C)c2ncc(F)cn2)nnc1-c1cccnc1` (mixture of isomers) [Example 182.0, (2R,3S)-N-(4-(2,6-dimethoxyphenyl)-5-(3-pyridinyl)-4H-1,2,4-triazol-3-yl)-3-(5-fluoro-2-pyrimidinyl)-2-butanesulfonamide and (2S,3R)-N-(4-(2,6-dimethoxyphenyl)-5-(3-pyridinyl)-4H-1,2,4-triazol-3-yl)-3-(5-fluoro-2-pyrimidinyl)-2-butanesulfonamide]: 8.96; for `COc1cccc(OC)c1-n1c(NS(=O)(=O)[C@@H](C)Cc2ncc(F)cn2)nnc1-c1ccccn1` (mixture of isomers) [Example 202.0, (2R)-N-(4-(2,6-dimethoxyphenyl)-5-(2-pyridinyl)-4H-1,2,4-triazol-3-yl)-1-(5-fluoro-2-pyrimidinyl)-2-propanesulfonamide and (2S)-N-(4-(2,6-dimethoxyphenyl)-5-(2-pyridinyl)-4H-1,2,4-triazol-3-yl)-1-(5-fluoro-2-pyrimidinyl)-2-propanesulfonamide]: 7.81; for `COc1cccc(-c2nnc(NS(=O)(=O)C[C@H](O)c3ccc(Cl)cc3)n2-c2c(OC)cccc2OC)n1` (mixture of isomers) [Example 264.0, (R)-2-(4-chlorophenyl)-N-(4-(2,6-dimethoxyphenyl)-5-(6-methoxypyridin-2-yl)-4H-1,2,4-triazol-3-yl)-2-hydroxyethanesulfonamide and (S)-2-(4-chlorophenyl)-N-(4-(2,6-dimethoxyphenyl)-5-(6-methoxypyridin-2-yl)-4H-1,2,4-triazol-3-yl)-2-hydroxyethanesulfonamide]: 9.47. The same measure for `COc1cccc(OC)c1-n1c(NS(=O)(=O)C[C@@H](O)C2CCC2)nnc1-c1cncc(C)c1` (mixture of isomers) [Example 382.0, (R)-2-cyclobutyl-N-(4-(2,6-dimethoxyphenyl)-5-(5-methylpyridin-3-yl)-4H-1,2,4-triazol-3-yl)-2-hydroxyethanesulfonamide and (S)-2-cyclobutyl-N-(4-(2,6-dimethoxyphenyl)-5-(5-methylpyridin-3-yl)-4H-1,2,4-triazol-3-yl)-2-hydroxyethanesulfonamide]: 7.14.

As to `COc1cccc(-c2nnc(NS(=O)(=O)[C@H](C)[C@@H](O)C(C)(C)C)n2-c2c(OC)cccc2OC)n1` (mixture of isomers) [Example 433.0], the pEC50 is 7.38. The value for `COc1cccc(OC)c1-n1c(NS(=O)(=O)[C@@H](C)[C@H](C)c2ncc(F)cn2)nnc1-c1cccc(C)n1` (mixture of isomers) [Example 452.0, (2S,3R)—N-(4-(2,6-dimethoxyphenyl)-5-(6-methyl-2-pyridinyl)-4H-1,2,4-triazol-3-yl)-3-(5-fluoro-2-pyrimidinyl)-2-butanesulfonamide and (2R,3S)—N-(4-(2,6-dimethoxyphenyl)-5-(6-methyl-2-pyridinyl)-4H-1,2,4-triazol-3-yl)-3-(5-fluoro-2-pyrimidinyl)-2-butanesulfonamide] was 9.00; that for `COc1cccc(OC)c1-n1c(NS(=O)(=O)[C@@H](C)Cc2ncc(F)cn2)nnc1-c1cccc(C)n1` (mixture of isomers) [Example 618.0, (S)-N-(4-(2,6-dimethoxyphenyl)-5-(6-methylpyridin-2-yl)-4H-1,2,4-triazol-3-yl)-1-(5-fluoropyrimidin-2-yl)propane-2-sulfonamide and (R)-N-(4-(2,6-dimethoxyphenyl)-5-(6-methylpyridin-2-yl)-4H-1,2,4-triazol-3-yl)-1-(5-fluoropyrimidin-2-yl)propane-2-sulfonamide] was 8.27; that for `COc1cccc(OC)c1-n1c(NS(=O)(=O)[C@H](C)[C@@H](OC)c2ncnn2C)nnc1-c1cncc(C)c1` (mixture of isomers) [Example 637.0, (1S,2R)-N-(4-(2,6-dimethoxyphenyl)-5-(5-methylpyridin-3-yl)-4H-1,2,4-triazol-3-yl)-1-methoxy-1-(1-methyl-1H-1,2,4-triazol-5-yl)propane-2-sulfonamide and (1R,2S)-N-(4-(2,6-dimethoxyphenyl)-5-(5-methylpyridin-3-yl)-4H-1,2,4-triazol-3-yl)-1-methoxy-1-(1-methyl-1H-1,2,4-triazol-5-yl)propane-2-sulfonamide] was 6.82. On to `COc1cccc(OC)c1-n1c(NS(=O)(=O)[C@@H](C)[C@H](O)c2ccc(Br)c(C)n2)nnc1-c1cccnc1` (mixture of isomers) [Example 642.0, (1R,2S)-1-(5-bromo-6-methylpyridin-2-yl)-N-(4-(2,6-dimethoxyphenyl)-5-(pyridin-3-yl)-4H-1,2,4-triazol-3-yl)-1-hydroxypropane-2-sulfonamide and (1S,2R)-1-(5-bromo-6-methylpyridin-2-yl)-N-(4-(2,6-dimethoxyphenyl)-5-(pyridin-3-yl)-4H-1,2,4-triazol-3-yl)-1-hydroxypropane-2-sulfonamide], for which the pEC50 is 9.32. As for `COc1cccc(-c2nnc(NS(=O)(=O)[C@H]3CCCO[C@H]3c3ncc(C)cn3)n2-c2c(OC)cccc2OC)n1` (mixture of isomers) [Example 648.0], the pEC50 is 7.48.

In the case of `COc1cccc(OC)c1-n1c(NS(=O)(=O)C(C)Cc2ncc(F)cn2)nnc1-c1cncc(Br)c1` (racemic) [Example 146.0, (2R)-N-(5-(5-bromo-3-pyridinyl)-4-(2,6-dimethoxyphenyl)-4H-1,2,4-triazol-3-yl)-1-(5-fluoro-2-pyrimidinyl)-2-propanesulfonamide and (2S)-N-(5-(5-bromo-3-pyridinyl)-4-(2,6-dimethoxyphenyl)-4H-1,2,4-triazol-3-yl)-1-(5-fluoro-2-pyrimidinyl)-2-propanesulfonamide], the pEC50 is 8.68. In the case of `COc1cccc(OC)c1-n1c(NS(=O)(=O)[C@H](C)[C@@H](C)n2cc(C)cn2)nnc1-c1cncc(C)c1` (racemic) [Example 647.0], the pEC50 is 8.77. `COc1cccc(OC)c1-n1c(NS(=O)(=O)[C@H](C)[C@@H](C)c2cnc(C)cn2)nnc1-c1cccnc1` (racemic) [Example 701.0, (2R,3S)-N-(4-(2,6-dimethoxyphenyl)-5-(3-pyridinyl)-4H-1,2,4-triazol-3-yl)-3-(5-methyl-2-pyrazinyl)-2-butanesulfonamide, (2S,3R)-N-(4-(2,6-dimethoxyphenyl)-5-(3-pyridinyl)-4H-1,2,4-triazol-3-yl)-3-(5-methyl-2-pyrazinyl)-2-butanesulfonamide]: the pEC50 was 8.70.

Broadly, the pEC50 is −log10 of the EC50, conventionally taken in molar units.
